Experimental data published in US6046231A, “Use of 4'-bromoflavone in a cancer chemopreventative composition and method” (The Board of Trustees of the University of Illinois, priority 1999, dated 2000).
Entries after “also recorded” stand apart in the source; their conditions may differ. Where two headings read alike, the source gives them in different places.

Legend:
[1] = test system: quinone reductase (QR), mutant Hepa 1c1c7 cells (TAOBP^r cl and BP^r cl); test: QR induction in mutant Hepa 1c1c7 cell lines (mono-/bifunctional inducer); format: cell-based, murine; settings: wild-type vs mutant cells
Protocol: Determination of Quinone Reductase Activity in Cell Cultures. To determine the potency of inducers, Hepa 1c1c7 murine hepatoma cells as described in the Gerhauser publication were placed in 96-well plates at a density of 1×10^4 cells/ml in 200 μl of medium. After a preincubation period of 24 hr, the media were decanted and 190 μl fresh media were added to each well. Ten (10) μl test agents dissolved in 10% DMSO (final concentration of DMSO is 0.5%) with a serial 2-fold dilutions were introduced to each well, and the plates were incubated for an additional 48 hours. Specific QR activity was determined by measuring the NADPH-dependent menadiol-mediated reduction of 3-(4, 5-dimethylthiazo-2-yl)-2,5-diphenyltetrazolium bromide to blue formazan formed per mg protein per minute. Protein was determined in an identical set of test plates by staining with crystal violet. […] Induction of QR activity was calculated by comparing the QR specific activity of agent-treated cells with that of solvent-treated cells, and a plot of ratio was generated. […]
Induction of Quinone Reductase in Hepa 1c1c7 Cells. […] Induction of QR activity was calculated by comparing the QR specific activity of agent-treated cells with the QR specific activity of solvent-treated cells, and a plot of ratios was generated. […]

[2] = test system: QR ARE-CAT construct, HepG2 cells; test: CAT expression in HepG2 cells transfected with QR ARE-CAT; format: cell-based, human cells; rat QR gene; settings: 10 μM, 48 h; p<0.0001; listed as 4'-BF
Protocol: (§1) Transcient Transfection Gene Expression Assay. Cultured HepG2 human hepatoma cells were transfected with three plasmid constructs (PDTD-1697CAT, XRE-CAT, ARE-CAT) containing various portions of the 5'-region of the QR gene fused to the CAT gene using the calcium phosphate precipitation method (J. Sambrook et al., Molecular cloning: A Laboratory Handbook, Ed. Chris Nolan, CHS Laboratory Press, 1989). After 4 hours of transfection, the cells were treated with 10% glycerol for 3 minutes and rinsed with PBS and switched to MEM, containing 100 units/ml penicillin G sodium, 100 units/ml streptomycin sulfate, nonessential amino acids, and 1 mM sodium pyruvate (Life Technologies Inc.) supplemented with 10% fetal bovine serum for 12-16 hours recovery. Then, test agents were added to the cells. After 48 hours of treatment with the test agents, cells were harvested with lysis buffer (Boehringer Mannheim Biochemical) and CAT protein expressions were assessed using a CAT ELISA kit (Boehringer Mannheim Biochemical). CAT enzyme expression was normalized for the protein content of each sample. All data were expressed as mean +/- SD. Means were compared using Student's t test with n=4.
(§2) This was further investigated in transient transfection experiments wherein human hepatoma cells were transfected with DNA constructs containing various portions of the 5' upstream promoter region of the QR gene linked to the CAT reporter gene by using the calcium phosphate precipitation method. Construct pDTD-1097CAT contains elements of the rat QR gene connected to the CAT construct gene. […]
(§3) In particular, FIG. 1 illustrates quantitation of CAT expression in HepG2 cells transfected with QR-CAT constructs. […] CAT expression (ng CAT/mg protein) was determined using a CAT ELISA, and the ratio of CAT expression between treated and control cells was calculated (ratio=treated/control).

[3] = test system: QR XRE-CAT construct, HepG2 cells; test: CAT expression in HepG2 cells transfected with QR XRE-CAT; format: cell-based, human cells; rat QR gene; settings: 10 μM, 48 h; listed as 4'-BF
Protocol: as §1, §2, §3

cytochrome P-4501A1 = settings: cited from earlier work

Q: What does the source list for `O=c1cc(-c2ccc(Br)cc2)oc2ccccc12` [4'-Bromoflavone]?
A: inducer type (mono-/bifunctional) [1]: bifunctional inducer; CAT expression, QR ARE-CAT [2]: significantly (P<0.0001, students t test with n=4) induced; CAT expression, QR XRE-CAT [3]: Significant induction; also recorded: significantly (P<0.0001, students t test with n=4) induced; levels of cytochrome P-4501A1 (cytochrome P-4501A1): significantly increase; levels of cytochrome P-4501A1 (cytochrome P-4501A1; listed as 4'-bromoflavone): phase I induction
